These results are taken from PMC9962283, “The Plant Derived 3-3′-Diindolylmethane (DIM) Behaves as CB2 Receptor Agonist in Prostate Cancer Cellular Models” (International Journal of Molecular Sciences, 2023).

Data set [1] relates to cannabinoid CB1 or CB2 receptors (PC3 cell membranes). Description: [35S]GTPγS binding in PC3 cell membranes. It counts as biochemical, human. The conditions noted are these: for EC50: agonist alone, read-out: EC50, stimulation of [35S]GTPγS binding. How it is done: (§1) Binding assays with [^35S]GTPγS were performed with PC3 or LNCaP cell membranes. Both PC3 and LNCaP cells were removed from flasks by scraping and then frozen as a pellet at −20 °C until required. Before use in a radioligand-binding assay, cells were defrosted, diluted in Tris buffer (50 mM Tris–HCl, 50 mM Tris-Base) and homogenized. Protein assays were performed using a Bio-Rad Dc kit (Bio-Rad©, Watford, UK).
(§2) The measurement of ligand-stimulated [^35S]GTPγS binding to cannabinoid CB1 or CB2 receptors was adapted from methods described previously. The assays were carried out with GTPγS-binding buffer (50 mM Tris–HCl, 50 mM Tris-Base, 5 mM MgCl2, 1 mM ethylenediaminetetraacetic acid, 100 mM NaCl, 1 mM dithiothreitol and 0.1% bovine serum albumin) in the presence of [^35S]GTPγS and GDP, in a final volume of 500 μL. Binding was initiated by the addition of [^35S]GTPγS to the wells. Non-specific binding was measured in the presence of 30 μM GTPγS. The drugs were incubated in the assay for 60 min at 30 °C. The reaction was terminated by a rapid vacuum filtration method using Tris-binding buffer, as described previously, and the radioactivity was quantified by liquid scintillation spectrometry. In all the [^35S]GTPγS-binding assays, we used 0.1 nM [^35S]GTPγS, 30 μM GDP and a protein concentration of 40 μg per well for PC3 and LNCaP cell membranes. Compounds were stored at −20 °C in DMSO.
Paired Student’s t-test or one-way ANOVA analysis of variance (with Tukey’s post hoc analysis) was used where appropriate for cell viability and western blotting data. A value of p < 0.05 was taken as being significant.
A general note: GTPγS is a poorly hydrolysed GTP analogue; its binding reports G protein activation.

Data set [2] relates to FSK-induced cAMP production in PC3 cells. In words: Cyclic AMP assay (HitHunter), FSK-induced cAMP production in PC3 cells. The format is cell-based, human. The conditions noted are these: for Imax, inhibition of FSK-induced cAMP production / pIC50, inhibition of FSK-induced cAMP production / IC50: agonist alone; for IC50: read-out: IC50, inhibition of FSK-induced cAMP production. How it is done: The assays were performed using the HitHunter® cAMP assay kit (Eurofins DiscoverX Products, Celle-L’Evescault, France) according to the vendor’s protocol and previous studies. Briefly, cells were detached using cell dissociation buffer, counted and seeded at 2 × 10^4 cells per well in […] of complete medium onto white 96-well plates and incubated at 37 °C and 5% CO2 for approximately 24 h before running the experiment. The assays and the drug dilutions were performed in a 1:1 mixture of DMEM and Ham’s F12 medium without phenol red, containing […] of rolipram and forskolin (FSK; 7b-acetoxy-8,13-epoxy-1a,6b,9 atrihydroxylabd-14-en-11-one). Before running the assay, the medium was discarded, and cells were washed with D-MEM/F-12 medium. Then, cells were treated with the assigned drugs (30 μL per well) and incubated for 30 min at 37 °C and 5% CO2. Finally, cAMP standards and the appropriate mixture of kit components were added (as described by the manufacturer, Eurofins DiscoverX Products, Celle-L’Evescault, France). Plates were incubated overnight at room temperature in the dark. Chemiluminescent signals were detected on a Synergy HT Multi-Mode Microplate Reader (ThermoFisher Scientific, Loughborough, UK).
(§3) Values for half of the maximal effective concentration required to elicit a response (EC50), or for the half maximal inhibitory concentration (IC50) required to inhibit a response, as well as for maximal effect (Emax), standard error of the mean (S.E.M.) and 95% confidence limits of EC50 and IC50, have been calculated by nonlinear regression analysis using the equation for a sigmoid concentration–response curve (GraphPad Prism v5.0, San Diego, CA, USA). Paired Student’s t-test or one-way ANOVA analysis of variance (with Tukey’s post hoc analysis) was used where appropriate for cell viability and western blotting data. A value of p < 0.05 was taken as being significant.

The subject of data set [3] is cannabinoid CB1 or CB2 receptors (LNCaP cell membranes). In words: [35S]GTPγS binding in LNCaP cell membranes. It counts as biochemical, human. The conditions noted are these: agonist alone, read-out: EC50, stimulation of [35S]GTPγS binding. How it is done: as §1
as §2, with “DMSO. […]” for “DMSO.”

The test system of the next data set is PC3 cells. Description: Cell viability (MTT) assay in PC3 cells. As to conditions: 24 h, DIM alone. The format is cell-based, human. How it is done:
(§4) Human prostate cancer cell lines, LNCaP and PC3, were obtained from the European Collection of Animal Cell Cultures. These were cultured in RPMI 1640 medium (Merck Life Science Ltd., Gillingham, UK) containing 10% (vol:vol) fetal bovine serum and 1% (vol:vol) Penicillin–Streptomycin Solution (10,000 U/mL penicillin and 10 mg/mL streptomycin in 0.9% sodium chloride (Merck Life Science Ltd., Gillingham, UK).
(§5) A standard 3-(4,-5-dimethylthiazol-2-yl)-2,-5-diphenyl tetrazolium bromide (MTT) dye reduction assay was used to assess compounds. Briefly, cells were plated in a flat-bottomed 96-well plate at seeding densities of 6 × 10^3 cells per well for LNCaP cells and 5 × 10^3 cells per well for PC3 cells. Cells were treated the following day with the appropriate agents for 24 h. Following the incubation period, the MTT solution (5 mg/mL in phosphate-buffered saline) was added and incubated for 4 h. The contents of the wells were removed and replaced with 200 μL DMSO to dissolve the MTT formazan crystals. The plates were immediately read at 570 nm in a multi-well plate reader (DynaTech MR5000; Dynex Technologies Ltd., Chantilly, VA, USA).
as §3

A further data set concerns CB2 receptors. More on the design: method as in PMID 19286662. The conditions noted are these: hCB1/CB2-CHO transfected cells, β-arrestin assay; cited from earlier work.
A further data set concerns CB1 receptors. Also on record: method as in PMID 19286662. As to conditions: hCB1/CB2-CHO transfected cells; cited from earlier work.
In another data set the test system is LNCaP cells. Description: Cell viability (MTT) assay in LNCaP cells. The format is cell-based, human. The conditions noted are these: 24 h, DIM alone. How it is done: as §4, §5, §3
The next data set concerns phosphor-AKT (Ser473). In words: Western blot of phospho-AKT (Ser473) levels in PC3 cells. The format is cell-based, human. How it is done: (§6) Cells were homogenized in lysis buffer [20 mM Tris, 0.25 M sucrose, 10 mM ethyleneglycol-bis(aminoethylether)-tetraacetic acid, 2 mM ethylenediaminetetraacetic acid, 1 mM sodium orthovanadate, 25 mM sodium β-glycerophosphate and 50 mM sodium fluoride; pH 7.5]. Prior to use, 0.1% (vol:vol), protease Inhibitor Cocktail (Merck Life Science Ltd, Gillingham, UK) was added. A total of 20 μg of protein was electrophoresed through a precast 16% polyacrylamide gel (Thermo Fisher, Oxford, UK) for 2 h and the separated proteins were transferred to nitrocellulose membranes (Bio-Rad, UK), then blocked with 5% (wt:vol) skimmed milk in Tris-buffered saline with 0.1% (vol:vol) Tween 20 (TBST solution) at room temperature and incubated with 1:200 dilution of anti-pAKT (Ser473) antibody (Merck Life Science Limited, Watford, Hertfordshire UK) or 1:200 cleaved-CASP-3 antibody (Insight Biotechnology, UK) at 4 °C overnight. β-Actin (1:20,000) was used as an internal loading control to normalize between lanes during densitometry. The appropriate secondary antibody for pAKT (anti-mouse), cleaved-CASP-3 (anti-mouse) was used at a concentration of 1:5000 (Insight Biotechnology Ltd, Wembley, Middlesex, UK) and incubated at room temperature for 1 h. […]

Data set [4] concerns cleaved caspase 3 (CASP-3). Description: Western blot of cleaved caspase 3 levels in PC3 cells. The format is cell-based, human. How it is done: as §6
On the technique in general: Immunoblotting shows a protein as a band on a membrane.

“Also recorded” adds a separate entry of the source.

As a reminder, the EC50 is the concentration needed to bring the measured effect to its halfway point. The term IC50 denotes the concentration at which inhibition is half-maximal.

In the case of `CCCCCCC(C)(C)c1ccc([C@@H]2C[C@H](O)CC[C@H]2CCCO)c(O)c1` [CP 55,940], the EC50 in data set [1] is 6.14 nM. In data set [2], the “Imax, inhibition of FSK-induced cAMP production” value amounted to 9.74; the “pIC50, inhibition of FSK-induced cAMP production” value amounted to 8.314; the IC50 amounted to 4.85 nM. Further, the EC50 in data set [3] is 2.56 nM.

Turning to `c1ccc2c(Cc3c[nH]c4ccccc34)c[nH]c2c1` [DIM, 3-3′-Diindolylmethane], in [1], the “Agonist behaviour in [35S]GTPγS binding” value is given as “full agonist behavior” and the EC50 was 9.28 nM. In the data set on PC3 cells, 38900 nM corresponded to half-maximal inhibition (IC50); the “Imax, cell viability” value is recorded as 8.50; the “pIC50, cell viability” value is 4.410. In addition, in data set [2], the “Imax, inhibition of FSK-induced cAMP production” value worked out at 17.36; the “pIC50, inhibition of FSK-induced cAMP production” value was 7.870; the IC50 amounted to 13.5 nM. In addition, the EC50 in data set [3] was determined as 32.1 nM. Further, the “Functional behaviour on CB2 receptors” value in the data set with CB2 receptors is on record as “partially activate; also recorded: partial agonist”. Also, the “Functional behaviour on CB1 receptors” value in the data set with CB1 receptors is on record as “slight inverse agonist”. Besides, in the data set on LNCaP cells, 85000 nM corresponded to half-maximal inhibition (IC50); the “Imax, cell viability” value is -16.63; the “pIC50, cell viability” value was 4.071. In addition, the pAKT level result in the data set with phosphor-AKT (Ser473) (DIM 50 nM) was “no significant reduction”. Further, in the data set on phosphor-AKT (Ser473) (DIM 50 µM), the pAKT level entry was “strong and significant reduction”. Moreover, in data set [4] (DIM 50 nM), the “Cleaved CASP-3 level” value is recorded as “significant increase”. The “Cleaved CASP-3 level” value in data set [4] (DIM 50 µM) is “significant increase”.

On to `Cc1c(C(=O)NN2CCCCC2)nn(-c2ccc(Cl)cc2Cl)c1-c1ccc(Cl)cc1` [SR1], for which the “Effect of CB1 antagonist on DIM's inhibition of FSK-induced cAMP production” value in data set [2] is reported as “no effect”.
